Measurements published in EP0540782B1, “Use of analogues of polyisoprenyl pyrophosphate for inhibiting protein isoprenylation” (NEDERLANDSE ORGANISATIE VOOR …, priority 1991, dated 1993).

Assays:
[1] = molecular target: farnesyl: protein transferase (Oryctolagus cuniculus, UniProt G1SFC8+G1T7D9); test: Inhibition of farnesylation of p21ras precursor (H-ras protein) by farnesyl: protein transferase in rabbit reticulocyte lysate, [3H]-FPP incorporation; settings: read-out: IC50-values, H-ras protein 30 µg/ml, 1 µM [3H]-farnesyl pyrophosphate, 37°C for 30 min
Chain of farnesyl: protein transferase (G1T7D9 entry or part of it, one chain of several): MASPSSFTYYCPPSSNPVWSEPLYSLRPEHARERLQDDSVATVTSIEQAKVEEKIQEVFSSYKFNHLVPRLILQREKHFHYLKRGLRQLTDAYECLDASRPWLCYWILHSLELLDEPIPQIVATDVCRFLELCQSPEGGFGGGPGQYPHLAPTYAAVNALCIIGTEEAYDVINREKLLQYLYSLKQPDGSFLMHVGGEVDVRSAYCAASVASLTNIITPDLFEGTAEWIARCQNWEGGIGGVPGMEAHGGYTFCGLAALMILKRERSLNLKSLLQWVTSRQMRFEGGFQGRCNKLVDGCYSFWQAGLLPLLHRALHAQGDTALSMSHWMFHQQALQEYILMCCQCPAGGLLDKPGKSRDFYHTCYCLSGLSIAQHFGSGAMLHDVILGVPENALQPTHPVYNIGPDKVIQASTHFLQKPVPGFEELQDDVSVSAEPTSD

squalene synthase = molecular target: T1, squalene synthase (Rattus norvegicus, UniProt Q02769); test: Inhibition of squalene synthase in rat liver microsomal preparations; assay type: biochemical
T1 construct: squalene synthase in rat liver microsomal preparations; from tissue; host or cells: rat liver microsomes
T1 sequence (Q02769 1-416): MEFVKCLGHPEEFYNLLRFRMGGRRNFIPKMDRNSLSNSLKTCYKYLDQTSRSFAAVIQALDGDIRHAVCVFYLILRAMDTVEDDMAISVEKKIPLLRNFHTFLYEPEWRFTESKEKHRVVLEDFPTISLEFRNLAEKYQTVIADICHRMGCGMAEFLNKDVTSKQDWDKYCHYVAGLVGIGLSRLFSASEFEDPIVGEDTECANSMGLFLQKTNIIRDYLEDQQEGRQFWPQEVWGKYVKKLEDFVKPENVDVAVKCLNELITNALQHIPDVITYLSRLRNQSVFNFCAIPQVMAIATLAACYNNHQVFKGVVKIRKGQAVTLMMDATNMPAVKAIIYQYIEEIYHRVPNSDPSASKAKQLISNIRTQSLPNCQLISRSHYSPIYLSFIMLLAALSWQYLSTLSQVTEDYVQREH

`CC(C)=CCCC(C)=CCCC(C)=CCCP(=O)(O)OP(=O)(O)O` [compound 1, farnesylmethylphosphonophosphate] gave an IC50 [1] of 4 µM and an IC50 (squalene synthase) of 480 µM.
With `CC(C)=CCCC(C)=CCCC(C)=CCP(=O)(O)OP(=O)(O)O` [compound 3, farnesylphosphonophosphate] the IC50 [1] was < 1 µM and the IC50 (squalene synthase) was 120 µM.
